Test results taken from US20250367321A1, “COMPOSITIONS AND METHODS INVOLVING ADGRG6” (The Regents of the University of California, priority 2022, published 2025).

Key:
adenyl cyclase (AC) = experiment: cAMP levels after treatment with the AC inhibitor; assay type: cell-based, human; conditions: for cAMP levels upon aAdo treatment: basal condition
Description: (§1) CAMP is a well-known signaling molecule that initiates adipogenesis by increasing protein kinase A (pKA), which then phosphorylates early transcription factors, including C/EBPb. To test whether ADGRG6 might increase cAMP levels in preadipocytes, we measured CAMP levels in WT and ADGRG6 KO human preadipocytes in both basal condition and forskolin which is […], using ELISA. […] We also measured cAMP levels in human preadipocytes that overexpress ADGRG6. […] In order to test whether ADGRG6 can directly affect cAMP levels via adenyl cyclase (AC), that converts ATP to CAMP, we treated ADGRG6 overexpressing preadipocytes with 2′,5′-Dideoxyadenosine (aAdo), an inhibitor of AC. In the basal condition, cAMP levels were reduced in both WT and ADGRG6 overexpressing cells upon aAdo treatment (FIG. 4A). […] Furthermore, we also examined the downstream target of CAMP-PKA, CREB phosphorylation. […] In the stimulated condition, p-CREB increased in WT cells but not in ADGRG6 KO cells (FIG. 4B).

human preadipocytes = experiment: cAMP levels by ELISA, basal or forskolin-stimulated; assay type: cell-based; conditions: WT human preadipocytes, forskolin treatment
Description: as §1

SMILES | cAMP levels upon aAdo treatment (adenyl cyclase (AC); ADGRG6 overexpressing preadipocytes) | increase of cAMP levels in ADGRG6 overexpressing preadipocytes compared to WT (adenyl cyclase (AC); Ado stimulated condition) | cAMP levels upon aAdo treatment (adenyl cyclase (AC); WT preadipocytes) | increase in cAMP levels compared to the basal condition (human preadipocytes)
C[C@H]1O[C@@H](n2cnc3c(N)ncnc32)C[C@@H]1O [aAdo, 2′,5′-Dideoxyadenosine] | reduced | 25% | reduced | 
C=C[C@@]1(C)CC(=O)[C@]2(O)[C@@]3(C)[C@@H](O)CCC(C)(C)[C@@H]3[C@H](O)[C@H](OC(C)=O)[C@@]2(C)O1 [forskolin] |  |  |  | 2 fold
